In patent US6447818B1, “Compositions containing compounds with adrenergic activity and vegetable extracts of Crataegus and gingko biloba for the treatment of overweight and obesity” (Ambros Pharma S.R.L., priority 1999, dated 2002):

Test system: systemic arterial pressure and cardiac frequency in the rat
Experiment: Hypertensive and tachycardic effects of adrenergic substances and extracts in the anesthetized rat
Assay type: in vivo
Settings: i.v., anesthetized male Wistar rats, dose-dependent
Description: 1. Effects of Crataegus Extract and Oterin® on Hypertension Induced with Ephedrine or with Extract of Ephedra Sinica Standardized in Ephedrine or Induced with Synephrine, or with Extract of Citrus Aurantium Standardized in Synephrine in the Rat
Male Wistar rats (Charles River, Calco-CO) weighing 180-200 grams were used. The animals were anesthetized with ethylurethane (1.2-1.5 g/kg i.p.) and prepared for the recording of systemic arterial pressure (via the carotid artery) and cardiac frequency. Individual examples of the registration (copies of the original tracings) and the summary of the mean data (±SEM) are given in FIGS. 1-4.
The dosages of synephrine leading to hypertensive activity were slightly higher (0.5-2 mg/kg i.v.) (FIGS. 2A, 3C). […] Tachycardia was induced in the same dose-dependent manner (FIGS. 3A, 3B).

`CNCC(O)c1ccc(O)cc1` (stereo not shown) [synephrine] was tested, and the “dosages inducing hypertensive effects on the arterial pressure” value was 0.5 to 2 mg/kg.
